In patent publication US20120059162A1, “FUSED IMIDAZOLE DERIVATIVE HAVING TTK INHIBITORY ACTION” (Oncotherapy Science, Inc., priority 2009, published 2012):

Experiments:
TTK = biological target: T1, TTK (Homo sapiens, UniProt P33981); test: TTK assay: screening of TTK kinase activity suppressing action using p38 MAPK peptide; assay type: biochemical; conditions: p38 MAPK peptide substrate; read-out: TTK IC50
T1 sequence (P33981 1-857): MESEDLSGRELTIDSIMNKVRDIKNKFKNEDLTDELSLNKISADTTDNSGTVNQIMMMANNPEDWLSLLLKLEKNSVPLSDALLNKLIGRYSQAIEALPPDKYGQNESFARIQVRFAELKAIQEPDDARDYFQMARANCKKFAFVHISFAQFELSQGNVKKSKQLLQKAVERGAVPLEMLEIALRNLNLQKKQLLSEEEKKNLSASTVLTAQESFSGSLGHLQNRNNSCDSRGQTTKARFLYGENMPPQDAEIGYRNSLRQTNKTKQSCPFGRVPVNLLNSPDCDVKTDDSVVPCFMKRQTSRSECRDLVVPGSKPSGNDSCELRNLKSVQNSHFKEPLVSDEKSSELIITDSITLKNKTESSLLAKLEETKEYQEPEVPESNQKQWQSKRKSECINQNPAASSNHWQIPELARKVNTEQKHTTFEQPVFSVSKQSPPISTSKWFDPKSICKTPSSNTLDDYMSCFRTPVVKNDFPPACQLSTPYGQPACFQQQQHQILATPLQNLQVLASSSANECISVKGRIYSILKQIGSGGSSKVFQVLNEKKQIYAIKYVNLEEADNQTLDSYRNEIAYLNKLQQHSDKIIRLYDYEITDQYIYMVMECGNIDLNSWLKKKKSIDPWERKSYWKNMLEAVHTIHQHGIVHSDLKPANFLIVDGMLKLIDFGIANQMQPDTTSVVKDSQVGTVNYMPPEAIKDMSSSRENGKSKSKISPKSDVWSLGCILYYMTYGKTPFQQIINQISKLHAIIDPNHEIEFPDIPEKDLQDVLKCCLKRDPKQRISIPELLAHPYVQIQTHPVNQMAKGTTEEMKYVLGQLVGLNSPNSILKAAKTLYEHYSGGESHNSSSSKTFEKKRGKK
Protocol: Screening of a compound having a TTK kinase activity suppressing action using p38 MAPK peptide
A test substance 1.0 μL (solvent: 10% (v/v) DMSO), TTK solution 5 μL (composition: 4 μg/ml TTK, 25 mM Tris-HCl, pH7.5, 5 mM β-glycerophosphate, 2 mM DTT, 0.1 mM Na3VO4, 5 mM MgCl2, 0.1% (w/v)BSA) and a substrate solution 5 μL (composition: 60 μM p38 MAPK peptide, 60 μM ATP, 25 mM Tris-HCl, pH7.5, 5 mM β-glycerophosphate, 2 mM DTT, 0.1 mM Na3VO4, 5 mM MgCl2, 0.1% (w/v)BSA) were mixed in the wells of a 384-well microtiter plate (manufactured by Corning Incorporated) made of polypropylene and loaded in a constant temperature and humidity room.
From the resultant mixture, an aliquot of 1.7 μL was taken out and mixed with the reaction terminating solution (60 μl) in the wells of a 384-well microtiter plate (manufactured by Corning Incorporated) made of polypropylene. Thereafter, 40 μL of the mixture was transferred to a 384-well black NeutrAvidin plate (PIERCE), sealed and incubated under room temperature for 30 minutes. […] Similarly, the plate was washed with TTBS (100 μL) three times, 40 μl of a secondary antibody solution (Eu-N1 labeled Anti-mouse IgG (Perkin Elmer, #AD0124)) was added and incubated under room temperature for 30 minutes. After the plate was washed with TTBS (100 μL) five times, 40 μL of an enhance solution (Perkin Elmer) was added and incubated under room temperature for 5 minutes. […] Based on the fluorescence value in the absence of a test substance, the suppression activity of a test substance was measured.

A549 = A549 assay: screening of cancer cell growth inhibiting compound; assay type: cell-based; conditions: Homo sapiens, 72 h; A549 cells, three days, WST-8; read-out: A549 IC50
Summary of the method: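 A549 cells (1×10^4/ml) in D-MEM with 10% FBS were pre-incubated one day at 37 °C, then exposed to compound dilutions for three further days. Viable cell number read by WST-8 (1–4 hours), absorbance 450 nm (reference 620 nm); inhibition calculated relative to untreated wells.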

IC50 (TTK) [nM]	IC50 (A549) [nM]	Structure (SMILES)
18.9	500 to 1000	C#CC(CC)(CC)Nc1cc(NCC2CCOCC2)c2ncc(-c3ccc(C(=O)NC4CC4)cc3)n2n1 [Example 2-76]
21.3	500 to 1000	C#CC1(Nc2cc(NCC3CCOCC3)c3ncc(-c4ccc(C(=O)NC5CC5)cc4)n3n2)CCCCC1 [Example 2-77]
3.5	≤ 50	CC(C)C(Nc1cc(NCC2CCOCC2)c2ncc(-c3ccc(C(=O)NC4CC4)cc3)n2n1)C(F)(F)F (stereo not drawn) [Example 2-78]
5.9	50 to 500	CC1(Nc2cc(NCC3CCOCC3)c3ncc(-c4ccc(C(=O)NC5CC5)cc4)n3n2)CCOCC1 [Example 2-79]
4	≤ 50	O=C(NC1CC1)c1ccc(-c2cnc3c(NCC4CCOCC4)cc(NC4CCCC(F)(F)C4)nn23)cc1 (stereo not drawn) [Example 2-80]
4	≤ 50	CC(C)(C)CC(C)(C)Nc1cc(NCC2CCOCC2)c2ncc(-c3ccc(C(=O)NC4CC4)cc3)n2n1 [Example 2-81]
6	≤ 50	CC(C)C(C)(C)Nc1cc(NCC2CCOCC2)c2ncc(-c3ccc(C(=O)NC4CC4)cc3)n2n1 [Example 2-82]
5.2	50 to 500	O=C(NC1CC1)c1ccc(-c2cnc3c(NCC4CCOCC4)cc(NC4CCCOC4)nn23)cc1 (stereo not drawn) [Example 2-83]
7.5	50 to 500	CC(Nc1cc(NCC2CCOCC2)c2ncc(-c3ccc(C(=O)NC4CC4)cc3)n2n1)c1cccs1 (stereo not drawn) [Example 2-84]
4	1000 to 10000	C#CC(C)(C)Nc1cc(NCC2CCOCC2)c2ncc(-c3ccc(C(=O)NC4CC4)cc3)n2n1 [Example 2-85]
6.2	50 to 500	CCC(C)Nc1cc(NCC2CCOCC2)c2ncc(-c3ccc(C(=O)NC4CC4)cc3)n2n1 (stereo not drawn) [Example 2-87, 4-(6-(sec-Butylamino)-8-((tetrahydro-2H-pyran-4-yl)methylamino)imidazo[1,2-b]pyridazin-3-yl)-N-cyclopropylbenzamide]
5	50 to 500	O=C(NC1CC1)c1ccc(-c2cnc3c(OCC4CCOCC4)cc(NC4CCCCC4)nn23)cc1 [Example 2-89, 4-(6-(Cyclohexylamino)-8-((tetrahydro-2H-pyran-4-yl)methoxy)imidazo[1,2-b]pyridazin-3-yl)-N-cyclopropylbenzamide]
2.7	50 to 500	O=C(NC1CC1)c1ccc(-c2cnc3c(NCC4CCOCC4)cc(Oc4ccccc4Cl)nn23)cc1 [Example 2-90, 4-(6-(2-Chlorophenoxy)-8-((tetrahydro-2H-pyran-4-yl)methylamino)imidazo[1,2-b]pyridazin-3-yl)-N-cyclopropylbenzamide]
2.3	≤ 50	Nc1cccc(Oc2cc(NCC3CCOCC3)c3ncc(-c4ccc(C(=O)NC5CC5)cc4)n3n2)c1 [Example 2-91]
4	50 to 500	Nc1ccc(Oc2cc(NCC3CCOCC3)c3ncc(-c4ccc(C(=O)NC5CC5)cc4)n3n2)cc1 [Example 2-92]
3.3	50 to 500	O=C(NC1CC1)c1ccc(-c2cnc3c(NCC4CCOCC4)cc(Oc4ccc(Cl)cc4)nn23)cc1 [Example 2-93]
2.5	50 to 500	COc1ccccc1Oc1cc(NCC2CCOCC2)c2ncc(-c3ccc(C(=O)NC4CC4)cc3)n2n1 [Example 2-95]
7.5	50 to 500	O=C(NC1CC1)c1ccc(-c2cnc3c(NCC4CCOCC4)cc(Oc4ccccc4C(F)(F)F)nn23)cc1 [Example 2-96]
3.3	≤ 50	Nc1ccccc1Oc1cc(NCC2CCOCC2)c2ncc(-c3ccc(C(=O)NC4CC4)cc3)n2n1 [Example 2-97]
2.4	≤ 50	Nc1c(F)cccc1Oc1cc(NCC2CCOCC2)c2ncc(-c3ccc(C(=O)NC4CC4)cc3)n2n1 [Example 2-98]
2.5	50 to 500	Cc1ccccc1Oc1cc(NCC2CCOCC2)c2ncc(-c3ccc(C(=O)NC4CC4)cc3)n2n1 [Example 2-101]

IC50 (TTK) [nM]	IC50 (A549) [nM]	Structure (SMILES)
3	50 to 500	Cc1cccc(Oc2cc(NCC3CCOCC3)c3ncc(-c4ccc(C(=O)NC5CC5)cc4)n3n2)c1 [Example 2-102]
4.4	50 to 500	Cc1ccc(Oc2cc(NCC3CCOCC3)c3ncc(-c4ccc(C(=O)NC5CC5)cc4)n3n2)cc1 [Example 2-103]
6.4	≤ 50	O=C(NC1CC1)c1ccc(-c2cnc3c(NCC4CCOCC4)cc(Oc4cccc(F)c4)nn23)cc1 [Example 2-106]
34.4	50 to 500	Cc1cccc(C)c1Oc1cc(NCC2CCOCC2)c2ncc(-c3ccc(C(=O)NC4CC4)cc3)n2n1 [Example 2-107]
3.3	50 to 500	COc1cccc(Oc2cc(NCC3CCOCC3)c3ncc(-c4ccc(C(=O)NC5CC5)cc4)n3n2)c1 [Example 2-109]
2.9	50 to 500	O=C(NC1CC1)c1ccc(-c2cnc3c(NCC4CCOCC4)cc(Oc4cccc(O)c4)nn23)cc1 [Example 2-110]
3.8	50 to 500	O=C(NC1CC1)c1ccc(-c2cnc3c(NCC4CCOCC4)cc(Oc4cccc(C(F)(F)F)c4)nn23)cc1 [Example 2-111]
2.7	≤ 50	COc1ccc(Oc2cc(NCC3CCOCC3)c3ncc(-c4ccc(C(=O)NC5CC5)cc4)n3n2)c(F)c1 [Example 2-112]
2.5	50 to 500	O=C(NC1CC1)c1ccc(-c2cnc3c(NCC4CCOCC4)cc(Oc4cccc(Cl)c4)nn23)cc1 [Example 2-114]
2.9	≤ 50	O=C(NC1CC1)c1ccc(-c2cnc3c(NCC4CCOCC4)cc(Oc4cccc(F)c4O)nn23)cc1 [Example 2-117]
2.2	≤ 50	O=C(NC1CC1)c1ccc(-c2cnc3c(NCC4CCOCC4)cc(Oc4cc(F)ccc4O)nn23)cc1 [Example 2-118]
8.6	50 to 500	O=C(NC1CC1)c1ccc(-c2cnc3c(NCC4CCCCC4)cc(NC4CCCCC4)nn23)cc1 [Example 2-125]
23.6	50 to 500	CN1CCC(CNc2cc(NC3CCCCC3)nn3c(-c4ccc(C(=O)NC5CC5)cc4)cnc23)CC1 [Example 2-126]
5	50 to 500	CC(=O)N1CCC(CNc2cc(NC3CCCCC3)nn3c(-c4ccc(C(=O)NC5CC5)cc4)cnc23)CC1 [Example 2-127]
7.4	50 to 500	O=C(NC1CC1)c1ccc(-c2cnc3c(NCC4CCC4)cc(NC4CCCCC4)nn23)cc1 [Example 2-128]
6.7	50 to 500	O=C(NC1CC1)c1ccc(-c2cnc3c(NCC4CCCC4)cc(NC4CCCCC4)nn23)cc1 [Example 2-129]
9.7	50 to 500	O=C(NC1CC1)c1ccc(-c2cnc3c(NCCCCO)cc(NC4CCCCC4)nn23)cc1 [Example 2-130]
5.5	50 to 500	O=C(NC1CC1)c1ccc(-c2cnc3c(NCC4CCSCC4)cc(NC4CCCCC4)nn23)cc1 [Example 2-131]
6.8	50 to 500	O=C(NC1CC1)c1ccc(-c2cnc3c(NCC4CC4)cc(NC4CCCCC4)nn23)cc1 [Example 2-132]
6.8	50 to 500	CCC(CC)CNc1cc(NC2CCCCC2)nn2c(-c3ccc(C(=O)NC4CC4)cc3)cnc12 [Example 2-133]
6.6	50 to 500	O=C(NC1CC1)c1ccc(-c2cnc3c(NCc4ccc(F)cc4)cc(NC4CCCCC4)nn23)cc1 [Example 2-134]
